Source: patent US20220053762A1, “HERBICIDAL COMPOSITIONS” (Bayer Aktiengesellschaft, priority 2018, published 2022)

Test system: harmful plant species
Assay: Specific trial examples: binary compositions applied by the post-emergence method, synergistic effect according to Colby (Tables 3.1-3.2)
Assay type: in vivo
Protocol: When the observed efficacies already exceed the formal sum total of the values of the tests with individual applications, they also exceed the expected value according to Colby, which is calculated using the formula below and is likewise regarded as an indication of synergism (cf. S. R. Colby; in Weeds 15 (1967) p. 20 to 22):
Seeds or rhizome pieces of mono- and dicotyledonous weeds are placed in sandy loam in pots, covered with soil and grown in a greenhouse under good growth conditions (temperature, air humidity, water supply). Three weeks after sowing, the test plants are treated at the three-leaf stage with the compositions according to the invention. The compositions according to the invention formulated as spray powders or as emulsion concentrates are sprayed onto the green plant parts in various dosages with an application rate of 300 to 800 l/ha of water (equivalent).
The sum total of the effects of the individual applications is reported under E^A; Expected values according to Colby are each reported under E^C.
The rating period is reported in days after application (DAT).

O=C(O)CNCP(=O)(O)O [(B7.5) Glyphosate]
65%: Herbicidal action 28 DAT against Digitaria sanguinalis (50 g a.i./ha) | Herbicidal action 28 DAT against Ipomoea purpurea (450 g a.i./ha)
88%: Herbicidal action 14 DAT against Matricaria inodora (150 g a.i./ha)
30%: Herbicidal action 14 DAT against Alopecurus myosuroides (50 g a.i./ha) | Herbicidal action 28 DAT against Centaurea cyanus (50 g a.i./ha) | Herbicidal action 28 DAT against Lamium purpureum L. (50 g a.i./ha) | Herbicidal action 28 DAT against Sorghum halepense (50 g a.i./ha) | Herbicidal action 14 DAT against Lolium rigidum (resistant biotype) (150 g a.i./ha) | Herbicidal action 28 DAT against Alopecurus myosuroides (150 g a.i./ha) | Herbicidal action 28 DAT against Raphanus raphanistrum (450 g a.i./ha) | Herbicidal action 28 DAT [%] against Sorghum halepense (post-emergence, single active compound (Glyphosate series), g a.i./ha: r775 50, r777 15, r778 1.67)
20%: Herbicidal action 14 DAT against Poa annua L. (50 g a.i./ha) | Herbicidal action 28 DAT against Alopecurus myosuroides (50 g a.i./ha) | Herbicidal action 28 DAT against Echinochloa crus-galli (50 g a.i./ha) | Herbicidal action 28 DAT against Kochia scoparia (50 g a.i./ha) | Herbicidal action 28 DAT against Matricaria inodora (50 g a.i./ha) | Herbicidal action 28 DAT against Alopecurus myosuroides (sensitive biotype) (150 g a.i./ha) | Herbicidal action 28 DAT against Amaranthus palmeri (res.) (150 g a.i./ha) | Herbicidal action 28 DAT against Avena fatua (150 g a.i./ha) | Herbicidal action 28 DAT against Bromus sterilis (150 g a.i./ha) | Herbicidal action 28 DAT against Viola tricolor (150 g a.i./ha)
95%: Herbicidal action 28 DAT [%] against Setaria viridis (post-emergence, single active compound (Glyphosate series), g a.i./ha: r786 450, r788 1.67)
0%: Herbicidal action 28 DAT against Alopecurus myosuroides (sensitive biotype) (50 g a.i./ha) | Herbicidal action 28 DAT against Bromus sterilis (50 g a.i./ha) | Herbicidal action 28 DAT against Galium aparine (50 g a.i./ha) | Herbicidal action 28 DAT against Polygonum convulvulus (50 g a.i./ha) | Herbicidal action 28 DAT against Raphanus raphanistrum (50 g a.i./ha) | Herbicidal action 28 DAT against Alopecurus myosuroides (resistant biotype) (150 g a.i./ha) | Herbicidal action 28 DAT against Lolium rigidum (sensitive biotype) (150 g a.i./ha) | Herbicidal action 28 DAT against Polygonum convolvulus (150 g a.i./ha) | Herbicidal action 28 DAT against Polygonum convolvulus (450 g a.i./ha)
10%: Herbicidal action 28 DAT against Digitaria sanguinalis (15 g a.i./ha) | Herbicidal action 14 DAT against Lolium rigidum (50 g a.i./ha) | Herbicidal action 14 DAT against Lolium rigidum (resistant biotype) (50 g a.i./ha) | Herbicidal action 28 DAT against Amaranthus palmeri (res.) (50 g a.i./ha) | Herbicidal action 28 DAT against Euphorbia heterophylla (50 g a.i./ha) | Herbicidal action 28 DAT against Hordeum murinum (50 g a.i./ha) | Herbicidal action 28 DAT against Polygonum convulvulus (150 g a.i./ha)
50%: Herbicidal action 14 DAT against Centaurea cyanus (50 g a.i./ha) | Herbicidal action 14 DAT against Lamium purpureum L. (50 g a.i./ha) | Herbicidal action 14 DAT against Viola tricolor (50 g a.i./ha) | Herbicidal action 14 DAT against Bromus sterilis (150 g a.i./ha) | Herbicidal action 28 DAT against Ipomoea purpurea (150 g a.i./ha) | Herbicidal action 28 DAT against Lamium purpureum L. (150 g a.i./ha) | Herbicidal action 28 DAT against Galium aparine (450 g a.i./ha) | Herbicidal action 28 DAT against Lolium rigidum (sensitive biotype) (450 g a.i./ha)
80%: Herbicidal action 28 DAT against Brachiaria platyphylla (50 g a.i./ha) | Herbicidal action 28 DAT against Eleusine indica (150 g a.i./ha) | Herbicidal action 28 DAT against Lamium purpureum (450 g a.i./ha) | Herbicidal action 28 DAT against Lamium purpureum L. (450 g a.i./ha) | Herbicidal action 28 DAT against Matricaria inodora (450 g a.i./ha)
40%: Herbicidal action 14 DAT against Matricaria inodora (50 g a.i./ha) | Herbicidal action 28 DAT against Eleusine indica (50 g a.i./ha) | Herbicidal action 28 DAT against Pharbitis purpurea (50 g a.i./ha) | Herbicidal action 14 DAT against Lolium rigidum (resistant biotype) (450 g a.i./ha) | Herbicidal action 28 DAT against Lolium rigidum (450 g a.i./ha) | Herbicidal action 28 DAT against Polygonum convulvulus (450 g a.i./ha)
15%: Herbicidal action 28 DAT against Ipomoea purpurea (50 g a.i./ha)
85%: Herbicidal action 28 DAT against Veronica hederifolia (150 g a.i./ha) | Herbicidal action 28 DAT against Stellaria media (450 g a.i./ha) | Herbicidal action 28 DAT against Veronica hederifolia (450 g a.i./ha) | Herbicidal action 28 DAT [%] against Abutilon theophrasti (post-emergence, single active compound (Glyphosate series), g a.i./ha: r796 450, r798 5)
45%: Herbicidal action 28 DAT [%] against Digitaria sanguinalis (post-emergence, single active compound (Glyphosate series), g a.i./ha: r765 50, r767 15)
60%: Herbicidal action 14 DAT against Alopecurus myosuroides (150 g a.i./ha) | Herbicidal action 14 DAT against Lamium purpureum L. (150 g a.i./ha) | Herbicidal action 28 DAT against Lamium purpureum (150 g a.i./ha) | Herbicidal action 14 DAT against Viola tricolor (450 g a.i./ha) | Herbicidal action 28 DAT against Bromus sterilis (450 g a.i./ha) | Herbicidal action 28 DAT against Phalaris minor (450 g a.i./ha)
75%: Herbicidal action 28 DAT against Matricaria inodora (150 g a.i./ha)
70%: Herbicidal action 28 DAT against Centaurea cyanus (150 g a.i./ha) | Herbicidal action 28 DAT against Euphorbia heterophylla (450 g a.i./ha)
35%: Herbicidal action 28 DAT against Euphorbia heterophylla (150 g a.i./ha) | Herbicidal action 28 DAT against Amaranthus palmeri (res.) (450 g a.i./ha)

C=C[C@]1(C(=O)N[C@@H]2C=C(C(=O)NS(C)(=O)=O)OC2)CC(c2cc(F)cc(F)c2)=NO1 [Compound A4, (5S)-3-(3,5-difluorophenyl)-N-[(3R)-5-(methylsulfonylcarbamoyl)-2,3-dihydrofuran-3-yl]-5-vinyl-4H-isoxazole-5-carboxamide]
0%: Herbicidal action 28 DAT against Alopecurus myosuroides (1 g a.i./ha) | Herbicidal action 28 DAT against Viola tricolor (1 g a.i./ha) | Herbicidal action 28 DAT against Lolium rigidum (resistant biotype) (4 g a.i./ha) | Herbicidal action 28 DAT against Viola tricolor (4 g a.i./ha) | Herbicidal action against Viola tricolor ((Z90) 28 DAT, g a.i./ha: r624 4, r625 270) | Herbicidal action in [%] 28 DAT against Lolium rigidum (resistant bio type) (post-emergence, single active compound (A4 series), g a.i./ha: r523 1, r524 450)
30%: Herbicidal action 14 DAT against Viola tricolor (1 g a.i./ha) | Herbicidal action 14 DAT against Centaurea cyanus (4 g a.i./ha) | Herbicidal action 14 DAT against Lamium purpureum L. (4 g a.i./ha) | Herbicidal action 14 DAT against Matricaria inodora (4 g a.i./ha) | Herbicidal action 14 DAT against Viola tricolor (4 g a.i./ha) | Herbicidal action 28 DAT against Bromus sterilis (4 g a.i./ha) | Herbicidal action 14 DAT against Alopecurus myosuroides (16 g a.i./ha) | Herbicidal action against Lamium purpureum L. ((Z90) 28 DAT, g a.i./ha: r586 16, r587 30) | Herbicidal action in [%] 14 DAT against Lamium purpureum L. (post-emergence, single active compound (A4 series), g a.i./ha: r501 4, r502 1, r503 450)
40%: Herbicidal action 14 DAT against Matricaria inodora (1 g a.i./ha) | Herbicidal action 14 DAT against Centaurea cyanus (16 g a.i./ha) | Herbicidal action 14 DAT against Poa annua L. (16 g a.i./ha) | Herbicidal action in [%] 14 DAT against Poa annua L. (post-emergence, single active compound (A4 series), g a.i./ha: r533 16, r534 450)
20%: Herbicidal action 14 DAT against Bromus sterilis (1 g a.i./ha) | Herbicidal action 14 DAT against Poa annua L. (1 g a.i./ha) | Herbicidal action 28 DAT against Lamium purpureum L. (1 g a.i./ha) | Herbicidal action 28 DAT against Galium aparine (16 g a.i./ha) | Herbicidal action against Galium aparine ((Z90) 28 DAT, g a.i./ha: r575 16, r576 270, r577 90, r578 30) | Herbicidal action in [%] 28 DAT against Galium aparine (post-emergence, single active compound (A4 series), g a.i./ha: r491 16, r492 50) | Herbicidal action in [%] 28 DAT against Lamium purpureum L. (post-emergence, single active compound (A4 series), g a.i./ha: r512 4, r513 1, r514 450)
10%: Herbicidal action 14 DAT against Alopecurus myosuroides (1 g a.i./ha) | Herbicidal action 14 DAT against Lolium rigidum (resistant biotype) (1 g a.i./ha) | Herbicidal action 28 DAT against Bromus sterilis (1 g a.i./ha) | Herbicidal action 28 DAT against Matricaria inodora (1 g a.i./ha) | Herbicidal action 14 DAT against Lolium rigidum (resistant biotype) (4 g a.i./ha) | Herbicidal action 28 DAT against Lolium rigidum (4 g a.i./ha) | Herbicidal action 28 DAT against Matricaria inodora (4 g a.i./ha) | Herbicidal action 28 DAT against Phalaris minor (4 g a.i./ha) | Herbicidal action against Lolium rigidum ((Z90) 28 DAT, g a.i./ha: r594 16, r595 30) | Herbicidal action against Matricaria inodora ((Z90) 28 DAT, g a.i./ha: r602 4, r603 90)
